Test results as given in patent publication US5177102A, “Polyisoprene compounds and salts thereof” (Sanwa Kagaku Kenkyusho Co., Ltd., priority 1990, dated 1993).
Read-outs that look alike come from different tables or passages of the source.

Test system: stress-induced gastric ulcer
Test: Anti-ulcer activity: water-immersion restraint stress-induced gastric ulcer in rats, oral (procedure of Takagi et al.)
Type: in vivo, Male Sprague-Dawley rats
Details: for ED50: read-out: ED50 (dose of test compound which gives 50% inhibition)
Experimental: Some polyisoprene compounds according to the invention were tested to evaluate their anti-ulcer activity in comparison with Teprenone and Gefarnate as controls, in accordance with the procedure proposed by Takagi et al ["Japan. J. Pharmacol.", Vol. 18, page 9 (1968)].
Male Sprague-Dawley rats were used, each having the body weight of 183.9 to 234.5 g. The animals were deprived of food for 24 hours prior to the test. They were immobilized in a restraint cage and immersed for 7 hours to the height of the xiphoid process in a water-bath kept at 23°±1° C. After inflation with 10 ml of 1% formalin, the isolated stomach was opened along the greater curvature. The ulcer index was determined as the sum of length (mm) of each erosion per rat. The compounds were administered orally 30 minutes before the restraint.
Results are shown in following Table 1 in terms of percent inhibition of anti-ulcer activity. In the Table, ED50 represents the dose of test compound which gives 50% inhibition.

[1] = oral, 30 minutes before restraint, rat, read-out: Inhibition (percent inhibition, ulcer index)
[2] = oral, 30 minutes before restraint, rat
[3] = Rattus norvegicus, po, read-out: Inhibition (percent inhibition, ulcer index)

Row | SMILES | inhibition in vivo at 50 mg/kg [1] | ED50 [2] | ED50 (Rattus norvegicus, po) | inhibition in vivo at 100 mg/kg [3] | inhibition in vivo at 200 mg/kg [3] | inhibition in vivo at 400 mg/kg [3] | inhibition in vivo at 12.5 mg/kg [1] | inhibition in vivo at 25 mg/kg [1] | inhibition in vivo at 100 mg/kg (100 mg/kg, oral, 30 minutes before restraint, rat, read-out: Inhibition (percent inhibition, ulcer index))
1 | CC(C)=CCCC(C)=CCCC(C)=CCCC(C)=CCCC(C)=CCCC(C)=CCCC(C)=CCCC(C)=CCCC(C)=CCCC(C)=CCNCC12CCCN1CCC2 [Example 8, 5-{[(3,7,11,15,19,23,27,31,35,39-Decamethyl-2,6,10,14,18,22,26,30,34,38-tetracontadecaen-1-yl)amino]methyl}-1-azabicyclo[3.3.0]octane] | 10.3% | > 50 mg/kg |  |  |  |  |  |  | 
2 | CC(C)=CCC/C(C)=C/CC/C(C)=C/CCC(=O)OC/C=C(\C)CCC=C(C)C [Gefarnate, reference compound] |  |  | 387 mg/kg | 24.6% | 19.2% | 51.5% |  |  | 
3 | CC(=CCSCCN)CCCC(C)CCCC(C)CCCC(C)C (stereo not drawn) [Example 2, 2-(3,7,11,15-Tetramethyl-2-hexadecaen-1-ylthio)ethylamine] | 69% | 30.8 mg/kg |  |  |  |  | 9% | 45% | 
4 | CC(C)=CCCC(C)=CCCC(C)=CCSCCN [Example 6, 2-(3,7,11-Trimethyl-2,6,10-dodecatrien-1-ylthio)ethylamine] | 15.4% | > 50 mg/kg |  |  |  |  |  |  | 
5 | CNC(=C[N+](=O)[O-])NCCSCC=C(C)CCC=C(C)CCC=C(C)CCC=C(C)C [Example 7, 2-Methylamino-1-nitro-2-[2-(3,7,11,15-tetramethyl-2,6,10,14-hexadecatetraen-1-ylthio)ethylamino]ethylene] | 67.8% | 37.4 mg/kg |  |  |  |  | -7% | 23.8% | 
6 | CC(C)=CCCC(C)=CCCC(C)=CCCC(C)=CCNCC12CCCN1CCC2 [Example 9, 5-{[(3,7,11,15-Tetramethyl-2,6,10,14-hexadecatetraen-1-yl)amino]methyl}-1-azabicyclo[3.3.0]octane] | 84.9% | 16.6 mg/kg |  |  |  |  | 38.4% | 67.9% | 
7 | CC(C)=CCCC(C)=CCCC(C)=CCCC(C)=CCCC(C)=CCCC(C)=CCCC(C)=CCCC(C)=CCCC(C)=CCCC(C)=CCSCCNC(=O)CC12CCCN1CCC2 [Example 10, N-[2-(3,7,11,15,19,23,27,31,35,39-Decamethyl-2,6,10,14,18,22,26,30,34,38-tetracontadecaen-1-ylthio)ethyl]-(1-azabicyclo[3.3.0]octan-5-yl)acetamide] |  | > 50 mg/kg |  |  |  |  | 27.3% | 33.9% | 
8 | CC(C)=CCCC(C)=CCCC(C)=CCCC(C)=CCSCCN [Example 5, 2-(3,7,11,15-Tetramethyl-2,6,10,14-hexadecatetraen-1-ylthio)ethylamine] | 88% | 21.1 mg/kg |  |  |  |  | -2.8% | 57.4% | 
9 | CC(C)=CCCC(C)=CCCC(C)=CCCC(C)=CCN(CC=C(C)CCC=C(C)CCC=C(C)CCC=C(C)C)CC12CCCN1CCC2 [Example 12, 5-{[Bis(3,7,11,15-tetramethyl-2,6,10,14-hexadecatetraen-1-yl)amino]methyl}-1-azabicyclo[3.3.0]octane] |  | ≥ 25 mg/kg |  |  |  |  | 21.5% | 50% | 
10 | CC(C)=CCCC(C)=CCSCCN [Example 3, 2-(3,7-Dimethyl-2,6-octadien-1-ylthio)ethylamine] | 13.3% | > 50 mg/kg |  |  |  |  |  |  | 
11 | CC(=O)CCC=C(C)CCC=C(C)CCC=C(C)CCC=C(C)C [Teprenone, reference compound] | 9.4% | > 100 mg/kg |  |  |  |  |  | 0% | 48.3%
12 | CC(C)=CCCC(C)=CCCC(C)=CCCC(C)=CCCC(C)=CCCC(C)=CCCC(C)=CCCC(C)=CCCC(C)=CCSCCN [Example 1, 2-(3,7,11,15,19,23,27,31,35-Nonamethyl-2,6,10,14,18,22,26,30,34-hexatriacontanonaen-1-ylthio)ethylamine] | 55.1% | 39.7 mg/kg |  |  |  |  | -3.1% | 39.7% | 
13 | CC(C)=CCCC(C)=CCCC(C)=CCCC(C)=CCSCCNC(=O)CC12CCCN1CCC2 [Example 11, N-[2-(3,7,11,15-Tetramethyl-2,6,10,14-hexadecatetraen-1-ylthio)ethyl]-(1-azabicyclo[3.3.0]octan-5-yl)acetamide] | 68.5% | 26 mg/kg |  |  |  |  | 9.4% | 51% | 
14 | CC(C)=CCCC(C)=CCCC(C)=CCCC(C)=CCCC(C)=CCCC(C)=CCCC(C)=CCCC(C)=CCCC(C)=CCCC(C)=CCSCCN [Example 4, 2-(3,7,11,15,19,23,27,31,35,39-Decamethyl-2,6,10,14,18,22,26,30,34,38-tetracontadecaen-1-ylthio)ethylamine] | 44.4% | > 50 mg/kg |  |  |  |  | 11.1% | 24.2% | 
